Patent US5519116A, “Peptides representing permutations of the mastoparan sequence” (Enichem S.p.A., priority 1991, dated 1996)
Peptide text beside a SMILES is read from it.

Key:
rGOα = experiment: GTPγS binding to rGOα to saturation; set-up: species or system rat; details: at 20°
[1] = target: T1, rGOα (recombined Goα protein) (Rattus norvegicus, UniProt P59215); experiment: GTPase activity assay: GTP hydrolyzed by rGOα reconstituted into phospholipid blisters; type: biochemical; details: for inhibition at 1000 µM: 1 mM concentration of peptide, read-out: inhibition of hydrolysis of GTP by rGOα; for IC50: inhibition of basal GTPase activity of rGOα, read-out: IC 50 (concentration necessary to achieve 50% inhibition); for EC50: stimulation of rGOα GTPase activity, read-out: concentration giving 50 % of maximum stimulation
T1 construct: made in house; host or cells: E. coli (plasmid pT7-7)
T1 sequence (P59215 13-354): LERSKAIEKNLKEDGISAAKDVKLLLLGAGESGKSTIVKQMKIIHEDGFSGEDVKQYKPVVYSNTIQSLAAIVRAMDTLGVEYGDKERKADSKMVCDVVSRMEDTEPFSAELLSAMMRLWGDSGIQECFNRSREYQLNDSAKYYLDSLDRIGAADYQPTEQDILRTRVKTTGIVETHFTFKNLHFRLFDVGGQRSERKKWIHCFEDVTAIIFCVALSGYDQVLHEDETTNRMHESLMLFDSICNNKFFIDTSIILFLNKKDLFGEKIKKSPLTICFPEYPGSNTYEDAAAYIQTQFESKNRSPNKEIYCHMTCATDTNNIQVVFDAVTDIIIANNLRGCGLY
Experimental: The activity of the peptides was determined by evaluating the quantity of GTP hydrolyzed in the presence of a recombined Goα protein, using the procedures published by Brandt et al., (1983), Biochemistry, 22, 4357-4362 and by Higashijima et al., (1987), J. Biol. Chem., 262, 757-761.
The rGOα was produced by the authors of the present invention by expression in E.coli of the cDNA of the α subunit of the Go protein present in the rat's brain, inserted in register in the bacterial plasmid pt7-7 (Tabor et al., 1985, Proc. Natl. Acad. Sci. USA, 82, 1074-1078).
Compared with natural GOα, rGOα has an N-terminal deletion of 11 amino acids, replaced by another 5 different amino acids because of the cloning strategy adopted. The molecular weight of rGOα is 38.6 Kd.
When the rGOα is reconstituted into phospholipid blisters (by incubation with a phospholipid mixture at 4° C. for 16 hours), its basal GTPase activity reduces to 0.02 min^-1, This experimental condition which approaches that of the natural protein, in the inactivity state, inserted into the cell membrane was chosen to evaluate the effect of the peptides on the hydrolysis of GTP by rGOα.
5 volumes of a solution of rGOα in 50 mM Hepes, pH 8, 1 mM EDTA, 1 mM DTT and 0.02% of Lubrol (HEDL) were mixed with 1 volume of the same buffer containing 0.84% of sodium cholate, 0.05% of dimyristoyl-L-α-phosphatidylcholine, 0.05% of phosphatidylethanolamine from bovine brain and 0.067% of phosphatidyl-serine from bovine brain (as described by Mousli et al., 1990, Immunol. Lett., 25, 355-358) and preincubated at 4° C. overnight.
An aliquot of 32 μl of this solution was incubated at 20° C. for 5 min in a final volume of 50 μl of HEDL containing 1.1 mM MgCl2 and 0.4 μM (γ^-32 p) GTP (10000-30000 cpm/pmol) and the respective peptide at the final concentrations indicated.
The reactions were terminated by adding 750 μl of a 5% suspension of vegetable charcoal in 20 mM phosphoric acid. After agitation and centrifuging, 400 μl of supernatant containing the radioactive phosphate were counted by liquid scintillation.

With `Nc1nc2c(ncn2[C@@H]2O[C@H](COP(=O)(O)OP(=O)(O)OP(O)(O)=S)[C@@H](O)[C@H]2O)c(=O)[nH]1` [GTPγ S] the Kd (rGOα) was 0.0029 µM.

`CC[C@H](C)[C@H](N)C(=O)N[C@@H](CC(N)=O)C(=O)N[C@@H](CC(C)C)C(=O)N[C@@H](CCCCN)C(=O)N[C@@H](C)C(=O)N[C@@H](CC(C)C)C(=O)N[C@@H](C)C(=O)N[C@@H](C)C(=O)N[C@@H](CC(C)C)C(=O)N[C@@H](C)C(=O)N[C@@H](CCCCN)C(=O)N[C@@H](CCCCN)C(=O)N[C@H](C(=O)N[C@@H](CC(C)C)C(N)=O)[C@@H](C)CC` [Mastoparan, mastoparan] was tested, and the “increase of GTP hydrolysis” value ([1]; 1 mM of peptide (no additional effect beyond this concentration), 20° C., 5 min) was 5 times and the “effect on the GTPase activity of rGOα (capacity to activate the protein rGoα)” value ([1]; summary in words) was “stimulate the GTPase activity of rGOα in a manner dependent on the concentration”.

For `CC[C@H](C)[C@H](NC(=O)[C@H](CC(C)C)NC(=O)[C@H](C)NC(=O)[C@H](CCCCN)NC(=O)[C@H](CC(C)C)NC(=O)[C@H](CC(N)=O)NC(=O)[C@H](CC(C)C)NC(=O)[C@H](C)NC(=O)[C@@H](NC(=O)[C@H](CCCCN)NC(=O)[C@@H](N)CC(C)C)[C@@H](C)CC)C(=O)N[C@@H](C)C(=O)N[C@@H](C)C(=O)N[C@@H](CCCCN)C(=O)O` [compound 2] (H-LKIALNLKALIAAK-OH), the inhibition at 1000 µM [1] was > 90% and the IC50 [1] was 130 µM.

Work on `CC[C@H](C)[C@H](NC(=O)[C@H](C)NC(=O)[C@H](CC(C)C)NC(=O)[C@H](C)N)C(=O)N[C@@H](CCCCN)C(=O)N[C@@H](CC(C)C)C(=O)N[C@H](C(=O)N[C@@H](CC(C)C)C(=O)N[C@@H](CC(N)=O)C(=O)N[C@@H](CC(C)C)C(=O)N[C@@H](CCCCN)C(=O)N[C@@H](C)C(=O)N[C@@H](CCCCN)C(=O)N[C@@H](C)C(=O)O)[C@@H](C)CC` [peptide 1] (H-ALAIKLILNLKAKA-OH) yielded an inhibition at 1000 µM [1] of 75% and an IC50 [1] of 215 µM.

Molecule `CC[C@H](C)[C@H](N)C(=O)N[C@@H](CC(N)=O)C(=O)N[C@@H](CC(C)C)C(=O)N[C@@H](C)C(=O)N[C@@H](C)C(=O)N[C@@H](CC(C)C)C(=O)N[C@@H](CCCCN)C(=O)N[C@@H](CCCCN)C(=O)N[C@@H](CC(C)C)C(=O)N[C@@H](C)C(=O)N[C@@H](C)C(=O)N[C@@H](CCCCN)C(=O)N[C@H](C(=O)N[C@@H](CC(C)C)C(=O)O)[C@@H](C)CC` [peptide 4] (H-INLAALKKLAAKIL-OH) has an EC50 ([1]; 20° C., 5 min) of 500 µM.

For `CC[C@H](C)[C@H](NC(=O)[C@H](C)NC(=O)[C@H](CCCCN)NC(=O)[C@H](CC(C)C)NC(=O)[C@H](CCCCN)NC(=O)[C@H](C)NC(=O)[C@H](CC(N)=O)NC(=O)[C@@H](N)CC(C)C)C(=O)N[C@@H](C)C(=O)N[C@@H](CC(C)C)C(=O)N[C@@H](C)C(=O)N[C@@H](CC(C)C)C(=O)N[C@H](C(=O)N[C@@H](CCCCN)C(=O)O)[C@@H](C)CC` [peptide 7] (H-LNAKLKAIALALIK-OH), the inhibition at 1000 µM [1] was 63% and the IC50 [1] was 600 µM.

`CC[C@H](C)[C@H](NC(=O)[C@H](CC(C)C)NC(=O)[C@H](C)NC(=O)[C@H](CCCCN)NC(=O)[C@H](C)NC(=O)[C@H](CC(C)C)NC(=O)[C@H](C)NC(=O)[C@H](CC(C)C)NC(=O)[C@@H](NC(=O)[C@@H](N)CC(N)=O)[C@@H](C)CC)C(=O)N[C@@H](CCCCN)C(=O)N[C@@H](C)C(=O)N[C@@H](CC(C)C)C(=O)N[C@@H](CCCCN)C(=O)O` [peptide 8] (H-NILALAKALIKALK-OH) was tested, and the EC50 ([1]; 20° C., 5 min) was 250 µM.
